“And” between values parts separate entries of the source, which are not always exact repeats. Identical values can stand only once. Like-named read-outs stand apart in the source and are kept apart here.
How the values were obtained:
[1] = tested on: Notch signalling; experiment: Notch reporter assay (12xCSL firefly luciferase / renilla luciferase, HEK293T Notch1ΔE reporter cell line clone #A1-11); assay type: cell-based; design: AUC Notch: scale not given here; conditions: for Bottom (Emax): Emax indicated independent from assay constraints, in % (unit assumed); for AUC Notch: area under the 14-point dose-response curve
Source text: To identify novel Notch inhibitors in an unbiased manner, we generated a novel Notch reporter construct, which records the level of Notch signalling immediately downstream of receptor activation rather than further downstream in the signalling cascade, for example at the level of Hes and Hey proteins (Fig. 1B). […] The reporter construct carries piggy-bac sequences at both ends of the promoter-reporter cassette as well as cSH4 insulator elements to reduce transcriptional noise[21] and was transfected into HEK293T cells. To achieve a robust level of Notch receptor activity in the HEK293T reporter cell line and to confine the search for inhibitors to compounds affecting the receptor function and eliminating the need for ligand activation, a truncated ligand-independent version of the Notch1 receptor, mimicking an S2-cleaved Notch1 receptor (Notch1ΔE) and spontaneously activated by S3-cleavage[22] (Fig. 1C) was introduced into the cell line carrying the reporter construct (Fig. 1D). In addition, an HSV-TK-renilla luciferase plasmid was introduced into the cell line as an internal control for normalisation of the reporter expression (Fig. 1D).
A de novo Notch reporter construct, composed of six dimeric CSL binding sites linked to a basic b-globin promoter and followed by a firefly luciferase gene and a PEST degradation domain was synthesised (GeneArt). The construct was stably introduced into HEK293T cells, and zeocin (0.1 mg/ml) or Puromycin (0.05 mg/ml (ThermoFisher, cat #R25001, #A1113803) were used as selection markers. A clonal cell line (clone #A1) with robust renilla expression and enhanced firefly luciferase expression upon transient transfection of Notch1 ICD or Notch1ΔE constructs was selected, and a UB6 promoter-Notch1DE construct was stably introduced into this cell line using Blasticidin (0.1 mg/ml; ThermoFisher, cat #A1113903) as a selection marker. Stable cell lines were generated by serial dilution and only clonal colonies were selected for further evaluation. To measure luciferase reporter activity, cells were washed in cold PBS, detached, and collected in pre-warmed cell culture medium and centrifugated for five min at 200xg. The cell pellet was resuspended in medium, cells were counted, and 4,000 cells were seeded in each well of a white 384 well plate (Corning #3670) in 20 µl medium containing either DMSO or the GSI DAPT (N-[N-(3,5-Difluorophenacetyl)-L-alanyl]-S-phenylglycine t-butyl ester, Sigma-Aldrich, cat #565784-M) and incubated for 24 h. The efficacy of the reporter gene system was determined by monitoring the level of luciferase activation in the absence or presence of different amounts of DAPT in several cell clones. Luciferase activity was assessed using the dual-GLO luciferase detection kit from Promega (cat # E2920), following the manufacturer’s instructions. A minimum of two technical replicates were measured per clone using a SpectraMaxi3 plate reader (Molecular Devices). Reporter activity of different clones and in response to DAPT was assessed by normalising firefly (Notch activity) to renilla luciferase signals. Normalised signals of individual clones cultivated in DMSO were then compared to corresponding signals generated with DAPT-treated cells. The cell clone with the strongest signal to control ratio (DMSO to DAPT) was then selected for further exploration (clone #A1-11).
37,966 compounds were spotted by the compound center at SciLifeLab (https://www.scilifelab.se/) on a total of 120 plates (Greiner #781080) at a fixed concentration of 10 µM and the screening process spanned five consecutive sessions. The layout of each plate contained one column for DMSO and one for DAPT controls to determine the quality and reliability of the data. DAPT controls were spotted at 10 µM and DMSO was spotted in an equimolar volume. In addition, plates spotted with only DMSO were utilized to investigate the impact of plate effects before and after each session. […]

[2] = target: γ-secretase complex (Homo sapiens, UniProt P49768); experiment: APP-C99 counter assay (GSI reporter assay); assay type: cell-based; design: AUC APP: scale not given here; conditions: for AUC APP: area under the 14-point dose-response curve, replicates averaged; for Hill-slope / curve fit information: bottom constrained to Emax of positive control LY-411575
Description: To this end, we used a previously established reporter gene-based GSI assay (APP-C99) (Fig. 3A), which measures γ-secretase activity through cleavage of amyloid precursor protein (APP), another protein processed by the γ-secretase complex[24]
Plasmids for APP and luciferase are described in[24] and the renilla plasmid described above generated for this project was used to normalize firefly values. 24 h post transfection cells were seeded on compound plates and cells were cultivated for 24 h before luciferase signals were read, as described.
Two-fold concentrations of compounds were diluted in 10 µl cell culture medium and brought to one-fold by seeding 10 µl containing 4000 cells of the respective cell type on each well of a 384-well plate, as described above. Analogous to the previous assays, all plates contained one DMSO and DAPT control column with the Notch reporter cell line (#A1-11) and a DMSO only and Notch inhibitor control plate was read before the measuring the screening plates. In addition, DAPT and DMSO were spotted in a dose response fashion, and a minimum of four replicates were read. Dose-responses of compounds were recorded in triplicates for each concentration reading out the dual luciferase reporters, as described above. Dose response assays were read together in one session. To measure compound effects, the different assays dose–response curves were fitted using the log(inhibitor) vs. response – Variable slope (model: Y = Bottom + (Top–Bottom)/(1 + 10^((LogIC50-X)*HillSlope)) equation.
A DMSO plate was read before measuring luciferase activity of compound spotted plates. APP firefly luciferase reporter assays were read with a signal integration time of 0.1 s, instead of 0.5 s used for the Notch reporter to reduce signal overlap between wells. […] The area-under-the-curve (AUC) was calculated on dose–response curves using Graphpad Prism.

[3] = 9p dose response, AUCs averaged when replicates available
[4] = 14p dose response, AUCs averaged when replicates available
[5] = 14p dose response, log10 of averaged IC50
[6] = overview in comparison to compound C, Supplemental Fig. 9
[7] = Homo sapiens, HEK-293T, 14p Notch assay DR, bottom constrained to Emax of positive control DAPT, read-out: approximated IC50
[8] = Homo sapiens, HEK-293T, 14p Notch assay DR, log10 value, bottom constrained to Emax of positive control DAPT, read-out: approximated LogIC50 (converted)

Row | SMILES | Bottom (Emax) ([1]; 14p Notch assay DR) | AUC Notch ([1]; replicates averaged) | AUC APP [2] | Hill-slope ([2]; 14p APP assay DR) | also measured
1 | C[C@H](NC(=O)Cc1cc(F)cc(F)c1)C(=O)N[C@@H]1C(=O)N(C)c2ccccc2-c2ccccc21 [YO-01027, reference compound] | 43.4 and 46.0 | 383.0 | 461.6 | – | AUC 9p Notch reporter assay [1, 3]: 1.99E+02; IC50 ([1]; 14-point, unit inferred, replicates averaged, read-out: approxiated IC50s 14p Notch reporter assay): 1.7 nM; approximated LogIC50 [M] ([1]; 14p Notch assay DR, log10 value, Notch inhibitor controls, no bottom constraint named): -8.7 M; IC50 ([1]; 14p dose response, single replicates, read-out: approximated IC50s 14p Notch reporter assay): 2 nM and 1.5 nM; AUC 14p Notch reporter assay [1, 4]: 3.83E+02; 14p Notch reporter assay averaged IC50s (log) [1, 5]: -8.8; Notch assay [1, 6]: higher potency; Hill-Slope 9p APP counter assay averaged ([2]; 9p dose response): -1.7; AUC 9p APP-counter assay [2, 3]: 2.30E+02; IC50 ([2]; 9p dose response, averaged, read-out: 9p APP counter assay averaged IC50s): 17 nM; IC50 ([2]; 9p dose response, read-out: approximated IC50s 9p APP counter assay): 17 nM; IC50 ([2]; 14-point, unit inferred, some fits outside of tested concentration range, read-out: approximated IC50s 14p APP-counter assay): 21 nM; Bottom (Emax) ([2]; 14p APP assay DR, Emax indicated independent from assay constraints): 40.6 and 48.3; IC50 ([2]; 14p APP assay DR, Notch inhibitor controls, no bottom constraint named, read-out: approximated IC50): 16 nM and 27 nM; approximated LogIC50 [M] ([2]; 14p APP assay DR, log10 value, Notch inhibitor controls, no bottom constraint named): -7.8 M and -7.6 M; AUC. 14p APP-counter assay [2, 4]: 4.62E+02; 14p APP counter assay averaged IC50s (log) [2, 5]: -7.7; APP assay [2, 6]: higher potency
2 | Oc1cc(-c2ccccc2)nn1-c1nc2ccccc2s1 [CBK016481] | 98.5 | 626.0 | 668.5 | 0.00215 | approximated IC50, Notch reporter assay ([1]; 14-point dose-response, Fig. 4): Indeterminate
3 | O=C(O)c1ccccc1C(=O)N1CCC2(CC1)OCCc1c2[nH]c2ccccc12 [CBK046981] | – | – | – | -0.0365 | –
4 | O=C(Nc1nnc(-c2ccc3c(c2)OCCO3)o1)c1cccc(F)c1 [CBK287402] | 87.8 | 353.0 | 499.9 | – | curve fit information ([2]; 14p APP assay DR): IC50 indeterminate
5 | Cc1c(C(C)NC(=O)c2[nH]c3ccccc3c2Cl)cnn1C (stereo not shown) [CBK246640] | 91.1 | 612.0 | 737.0 | 0.0225 | approximated IC50, Notch reporter assay ([1]; 14-point dose-response, Fig. 4): Indeterminate
6 | COc1ccccc1-c1cn2ccnc2c(Nc2cc(OC)c(OC)c(OC)c2)n1 [CBK066148] | 58.8 | 336.0 | 523.0 | 0.0659 | IC50 [1, 7]: 27000 nM; IC50 [1, 8]: 25100 nM
7 | Cc1ccccc1CN1CCC2(CC1)OCCc1c2[nH]c2ccc(F)cc12 [CBK040334] | ~ 28,93 | 607.0 | 704.0 | 0.00509 | IC50 ([1]; Homo sapiens, HEK-293T, 14-point dose-response, Fig. 4, read-out: approximated IC50, Notch reporter assay): > 5000 nM; IC50 [1, 7]: 8900 nM; IC50 [1, 8]: 7940 nM; curve fit information ([2]; 14p APP assay DR): IC50 indeterminate
8 | COc1ccc2cc(C(=O)N3Cc4cn(CCO)nc4C3)n(C)c2c1 [CBK306707] | – | – | – | 0.423 | –
9 | CC(=O)N1CCc2sccc2C1c1ccccc1NCc1ccoc1 (stereo not shown) [CBK286432] | – | – | – | -0.0118 | activity at 10 µM ([1]; Homo sapiens, HEK-293T, 10 µM, primary screen, 24 h, unit from Fig. 2 legend, read-out: Primary screen at 10 µM (Notch reporter signal)): 37.6%; activity at 10 µM ([1]; Homo sapiens, HEK-293T, 10 µM, three-dose confirmation screen, unit from Fig. 2 legend, read-out: Hit confirmation at 10 µM (Notch reporter signal)): 57.2%; activity at 10 µM ([1]; Homo sapiens, HEK-293T, 10µM, 3-point DR confirmation screen, Notch reporter assay, read-out: inhibitor ratio in % of DMSO in 3 point DR): 57.2%; activity at 10 µM ([1]; Homo sapiens, HEK-293T, 10 µM, sheet conf vs counter 10 µM, same values as 3-point DR confirmation screen, read-out: Confirmation screen): 57.2%; activity at 25 µM ([1]; Homo sapiens, HEK-293T, 25µM, 3-point DR confirmation screen, Notch reporter assay, read-out: inhibitor ratio in % of DMSO in 3 point DR): 45.5%; activity at 25 µM ([1]; Homo sapiens, HEK-293T, 25 µM, Notch reporter 3-point dose-confirmation assay, sheet "conf vs counter 25 µM", read-out: Confirmation screen): 45.5%; activity ([1]; Homo sapiens, HEK-293T, 1,25µM, 3-point DR confirmation screen, Notch reporter assay, read-out: inhibitor ratio in % of DMSO in 3 point DR): 88.7%; remaining activity at 10 µM ([2]; 24 h, 10µM, APP-C99 counter assay, read-out: 3p-DR in % of DMSO counter): 152%; remaining activity at 25 µM ([2]; 24 h, 25µM, APP-C99 counter assay, read-out: 3p-DR in % of DMSO counter): 184%; remaining activity at […] ([2]; 24 h, 1,25µM, APP-C99 counter assay, read-out: 3p-DR in % of DMSO counter): 147%
10 | COc1cc(Nc2nc(-c3ccc(Cl)cc3)cn3ccnc23)cc(OC)c1OC [CBK066238] | 82.4 | 336.0 | 492.9 | 0.0221 | –
11 | COc1cc(Nc2cncc(-c3cccc(N)c3)n2)cc(OC)c1OC [CBK065120] | 47.4 | 329.0 | 545.0 | 0.0798 | IC50 [1, 7]: 23000 nM; IC50 [1, 8]: 25100 nM
12 | CC(c1nc(N)nc(Nc2ccccc2)n1)N1CCC(NC(=O)c2ccccc2)CC1 (stereo not shown) [CBK233672] | – | – | – | 0.274 | –
13 | O=C(O)c1cccc2cccc(C(=O)N3CCC4(CC3)OCCc3c4[nH]c4ccccc34)c12 [CBK047027] | – | – | – | -0.9 | –
14 | O=C(O)c1cccc(-c2noc(-c3ccccc3F)n2)c1 [PTC-124, reference compound] | – | – | – | – | signal reduced by ([1]; luciferase inhibitor controls in three-dose regimen (1.25, 10 and 25 µM), Supplemental Fig. 2G): 83%
15 | COc1cc(Nc2nc(-c3ccccc3)cn3ccnc23)cc(OC)c1OC [CBK066345] | – | – | – | 0.0472 | –
16 | COc1ccc(-c2cn3ccnc3c(Nc3cc(OC)c(OC)c(OC)c3)n2)cc1OC [CBK066261] | – | – | – | 0.0544 | –
17 | CCn1ccc(CN(CCOC)C(=O)c2cc3c(Cl)cccc3[nH]2)n1 [CBK306903] | – | – | – | 3.84e-13 | curve fit information ([2]; 14p APP assay DR): IC50 indeterminate
18 | COc1ccc2[nH]c3c(c2c1)CCOC31CCN(C(=O)c2ccccc2C(=O)O)CC1 [CBK047213] | – | – | – | -8.4 | –
19 | O=C(O)c1cc(Cl)c(Cl)cc1C(=O)N1CCC2(CC1)OCCc1c2[nH]c2ccccc12 [CBK047019] | – | – | – | -0.0304 | –
20 | COc1ccc2[nH]c3c(c2c1)CCOC31CCN(C(=O)c2cccc3cccc(C(=O)O)c23)CC1 [CBK047020] | – | – | – | 20.5 | –
